Measurements: US20150010928A1, “MEANS AND METHODS FOR ASSESSING AN ENDOCRINE DISEASE OR DISORDER” (priority 2012, published 2015)
Marks after values point to notes of the source that are not given here.

System: male rats
Assay: Plasma metabolite profiling (GC-MS, LC-MS, SPE-LC-MS) in male rats dosed once daily over 28 days (OECD 407)
Assay type: in vivo, rat
Conditions: high dose; for Mannose: Table 15c
Summary of the method: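 Polar and lipid fractions profiled by GC-MS and LC-MS/MRM, steroids by online SPE-LC-MS; pool-normalized data compared to controls by Welch test as treatment ratios and p-values.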

Compound: C[C@]12CCC(=O)C=C1CC[C@@H]1[C@@H]2CC[C@@]2(C)[C@H]1CC[C@]2(C)O [17-alpha-Methyltestosterone]
- Mannose (m7, male rats): 1.14 *
- 3,4-Dihydroxyphenylacetic acid (DOPAC) (m7, male rats, Table 15d): 0.6 *
- 18-Hydroxy-11-deoxycorticosterone (m7, male rats, Table 15d): 0.35 *
- Glycerol phosphate, lipid fraction (m7, male rats, Table 15d): 0.28 *
- Homovanillic acid (HVA) (m7, male rats, Table 15d): 0.74 *
- Lysophosphatidylcholine (C18:1) (m7, male rats, Table 15d): 0.66 *
- Lysophosphatidylethanolamine (C22:5) (m7, male rats, Table 15d): 0.77 *
- Phosphate, lipid fraction (m7, male rats, Table 15d): 0.51 *
- Phosphatidylcholine (C18:0,C18:1) (m7, male rats, Table 15d): 0.78
- Sphingomyelin (d18:1, C16:0) (m7, male rats, Table 15d): 0.34 *
- Sphingomyelin (d18:1,C23:0) (m7, male rats, Table 15d): 0.49 *
- Sphingomyelin (d18:1,C24:0) (m7, male rats, Table 15d): 0.46 *
- Sphingomyelin (d18:2,C18:0) (m7, male rats, Table 15d): 0.4
- TAG No 02 (m7, male rats, Table 15d): 0.41 *
- myo-Inositol, lipid fraction (m7, male rats, Table 15d): 0.4 *
- Cholesterol (m7, Table 14b): 0.29
- Choline plasmalogen No 02 (m7, Table 14b): 0.55
- Lignoceric acid (C24:0) (m7, Table 14b): 0.28
- Sphingomyelin (d18:1, C16:0) (m7, Table 14b): 0.34
- Sphingomyelin (d18:2, C16:0) (m7, Table 14b): 0.39
- erythro-Sphingosine (d18:1) (m7, Table 14b): 0.17
- Mannose (m14, male rats): 1.03
- 3,4-Dihydroxyphenylacetic acid (DOPAC) (m14, male rats, Table 15d): 0.69 *
- 18-Hydroxy-11-deoxycorticosterone (m14, male rats, Table 15d): 0.94
- Glycerol phosphate, lipid fraction (m14, male rats, Table 15d): 0.63 *
- Homovanillic acid (HVA) (m14, male rats, Table 15d): 0.68 *
- Lysophosphatidylcholine (C18:1) (m14, male rats, Table 15d): 0.78 *
- Lysophosphatidylethanolamine (C22:5) (m14, male rats, Table 15d): 0.88 *
- Phosphate, lipid fraction (m14, male rats, Table 15d): 0.64 *
- Phosphatidylcholine (C18:0,C18:1) (m14, male rats, Table 15d): 0.69 *
- Sphingomyelin (d18:1, C16:0) (m14, male rats, Table 15d): 0.28 *
- Sphingomyelin (d18:1,C23:0) (m14, male rats, Table 15d): 0.76
- Sphingomyelin (d18:1,C24:0) (m14, male rats, Table 15d): 0.47 *
- Sphingomyelin (d18:2,C18:0) (m14, male rats, Table 15d): 0.31 *
- TAG No 02 (m14, male rats, Table 15d): 0.3 *
- myo-Inositol, lipid fraction (m14, male rats, Table 15d): 0.49 *
- Cholesterol (m14, Table 14b): 0.41
- Choline plasmalogen No 02 (m14, Table 14b): 0.64
- Lignoceric acid (C24:0) (m14, Table 14b): 0.39
- Sphingomyelin (d18:1, C16:0) (m14, Table 14b): 0.28
- Sphingomyelin (d18:2, C16:0) (m14, Table 14b): 0.38
- erythro-Sphingosine (d18:1) (m14, Table 14b): 0.21
- Mannose (m28, male rats): 1.2 *
- 3,4-Dihydroxyphenylacetic acid (DOPAC) (m28, male rats, Table 15d): 0.74
- 18-Hydroxy-11-deoxycorticosterone (m28, male rats, Table 15d): 0.55 *
- Glycerol phosphate, lipid fraction (m28, male rats, Table 15d): 0.47 *
- Homovanillic acid (HVA) (m28, male rats, Table 15d): 0.92
- Lysophosphatidylcholine (C18:1) (m28, male rats, Table 15d): 0.73 *
- Lysophosphatidylethanolamine (C22:5) (m28, male rats, Table 15d): 0.77 *
- Phosphate, lipid fraction (m28, male rats, Table 15d): 0.6 *
- Phosphatidylcholine (C18:0,C18:1) (m28, male rats, Table 15d): 0.7 *
- Sphingomyelin (d18:1, C16:0) (m28, male rats, Table 15d): 0.27 *
- Sphingomyelin (d18:1,C23:0) (m28, male rats, Table 15d): 0.48 *
- Sphingomyelin (d18:1,C24:0) (m28, male rats, Table 15d): 0.44 *
- Sphingomyelin (d18:2,C18:0) (m28, male rats, Table 15d): 0.36 *
- TAG No 02 (m28, male rats, Table 15d): 0.34 *
- myo-Inositol, lipid fraction (m28, male rats, Table 15d): 0.51 *
- Cholesterol (m28, Table 14b): 0.39
- Choline plasmalogen No 02 (m28, Table 14b): 0.49
- Lignoceric acid (C24:0) (m28, Table 14b): 0.19
- Sphingomyelin (d18:1, C16:0) (m28, Table 14b): 0.27
- Sphingomyelin (d18:2, C16:0) (m28, Table 14b): 0.37
- erythro-Sphingosine (d18:1) (m28, Table 14b): 0.19
